This passage reports viability results from article PMC12040169 (PLOS Biology, 2025).

The nature of the data set: in vitro. As to conditions: human, hela cells, % viability.
With `COc1cnc(-c2ccccc2OC)c(NC(=O)c2ccccc2)n1` [CBK145261], the viability (usually a read-out of living cells in per cent, often relative to untreated cells) at 28.5 h, 10 µM was 101%.
`COc1ccccc1-c1ncc(OCC(F)(F)F)nc1NC(=O)c1ccco1` [CBK145277]: the viability at 28.5 h, 10 µM came out at 98.3%.
Consider `COc1cnc(-c2ccsc2)c(NC(=O)CC(C)C)n1` [CBK145292], for which the viability at 28.5 h, 10 µM was 94%.
For the compound `COc1ccc(C(=O)Nc2nc(OC)cnc2-c2ccsc2)cc1` [CBK145293], the viability at 28.5 h, 10 µM amounted to 81.4%.
As for `O=C(Cc1ccccc1)Nc1nc(OCC(F)(F)F)cnc1-c1ccsc1` [CBK145298], the viability at 28.5 h, 10 µM worked out at 102%.
The same measure for `COc1cnc(-c2cccc(C(F)(F)F)c2)c(NC(=O)Cc2ccccc2)n1` [CBK145308]: 104%; for `COc1cnc(-c2cnn(C)c2)c(NC(=O)Cc2ccccc2)n1` [CBK145327]: 101%; for `COc1cnc(-c2cnn(C)c2)c(NC(=O)C2CC2)n1` [CBK145328]: 104%.
For the compound `COc1cnc(-c2cnn(C)c2)c(NC(=O)c2ccco2)n1` [CBK145329], the viability at 28.5 h, 10 µM was found to be 103%.
For `COc1cnc(-c2cc(Cl)cc(Cl)c2)c(NC(C)=O)n1` [CBK145333], the viability at 28.5 h, 10 µM was found to be 105%.
Consider `CCC(CC)C(=O)Nc1nc(OC)cnc1-c1cc(Cl)cc(Cl)c1` [CBK145338], for which the viability at 28.5 h, 10 µM came to 95.8%.
The same measure for `COc1cnc(-c2cc(Cl)cc(Cl)c2)c(NC(=O)c2ccsc2)n1` [CBK145340]: 87.8%.
The figure for `COCC(=O)Nc1nc(OC)cnc1/C=C\c1ccccc1` [CBK145360] is 113%; for `COc1cnc(/C=C\c2ccccc2)c(NC(=O)c2ccco2)n1` [CBK145361] it is 90.4%; for `COc1ccc(C(=O)Nc2nc(OCC(F)(F)F)cnc2/C=C\c2ccccc2)c(OC)c1` [CBK145367] it is 104%.
Regarding `O=C(Nc1nc(OCCN2CCCC2=O)cnc1/C=C\c1ccccc1)c1cc2ccccc2s1` [CBK145380], the viability at 28.5 h, 10 µM was 115%.
Turning to `CCC(CC)C(=O)Nc1nc(OC)cnc1-c1cccc(C(=O)N(C)C)c1` [CBK145392], the viability at 28.5 h, 10 µM turned out to be 98.5%.
As for `CC(=O)Nc1nc(OCC(F)(F)F)cnc1-c1cccc(C(=O)N(C)C)c1` [CBK145401], the viability at 28.5 h, 10 µM was found to be 96%.
With `COc1cnc(-c2ccccc2)c(NC(C)=O)n1` [CBK145410], the viability at 28.5 h, 10 µM turned out to be 93.4%.
For `CC(=O)Nc1nc(OCC(F)(F)F)cnc1-c1ccc2c(c1)OCO2` [CBK145427], the viability at 28.5 h, 10 µM turned out to be 91.8%.
Regarding `CCCCN(C)c1c(CC)nc2ccc(C(=O)NCCN3CCCC3)cn12` [CBK145440], the viability at 28.5 h, 10 µM is 96.2%.
Take `CCCCN(C)c1c(CC)nc2ccc(C(=O)Nc3ccc(OC)c(OC)c3)cn12` [CBK145445]: the viability at 28.5 h, 10 µM is 95.5%.
The same measure for `CCCCN(C)c1c(CC)nc2ccc(C(=O)NC3=NC(=O)CS3)cn12` [CBK145464]: 102%; for `CCc1nc2ccc(C(=O)Nc3ccc(C(N)=O)cc3)cn2c1N(CCN(C)C)CC1CC1` [CBK145468]: 87.1%.
For `CCc1nc2ccc(C(=O)Nc3ccc(C(N)=O)cc3)cn2c1N(C)CCC(C)C` [CBK145476], the viability at 28.5 h, 10 µM came to 90.7%.
The figure for `CCCCNC(=O)c1ccc2nc(CC)c(N(C)CCC(C)C)n2c1` [CBK145477] is 100%; for `CCc1nc2ccc(C(=O)N(C)Cc3ccco3)cn2c1N(C)C(=O)c1ccncc1` [CBK145479] it is 90.9%; for `CCc1nc2ccc(C(=O)Nc3cccc(OC)c3)cn2c1N(C)Cc1cccs1` [CBK145522] it is 96.7%.
The figure for `CCc1nc2ccc(C(=O)NCCCN3CCCC3=O)cn2c1N(C)Cc1cccs1` [CBK145536] is 95%.
For `CCc1nc2ccc(C(=O)N(C)Cc3ccco3)cn2c1N(C)Cc1cccs1` [CBK145552], the viability at 28.5 h, 10 µM was 98.5%.
For `CCc1nc2ccc(C(=O)NC3=NN(c4ccccc4)C(=O)C3)cn2c1N(C)Cc1cccs1` [CBK145557], the viability at 28.5 h, 10 µM amounted to 93%.
On to `CCc1nc2ccc(C(=O)NCC3CCCCC3)cn2c1N(C)Cc1ccc(OC)cc1` [CBK145568], for which the viability at 28.5 h, 10 µM came out at 91.1%.
Consider `CCc1nc2ccc(C(=O)N3CCN(C)CC3)cn2c1N(C)Cc1ccc(NC(C)=O)cc1` [CBK145603], for which the viability at 28.5 h, 10 µM is 87%.
The same measure for `CCCCN(C=O)c1c(CC)nc2ccc(C(=O)N3CCN(C)CC3)cn12` [CBK145707]: 93.1%.
As to `CCCCN(C=O)c1c(CC)nc2ccc(C(=O)NCC3CCCCC3)cn12` [CBK145708], the viability at 28.5 h, 10 µM came to 85.3%.
As for `CCCCN(C(C)=O)c1c(CC)nc2ccc(C(=O)NCCCn3ccnc3)cn12` [CBK145759], the viability at 28.5 h, 10 µM came to 96.1%.
For `CCCCNC(=O)c1ccc2nc(CC)c(N(C)C(=O)C3CCCCC3)n2c1` [CBK145791], the viability at 28.5 h, 10 µM was found to be 88.9%.
For the compound `CCc1nc2ccc(C(=O)NC3=NC(=O)CS3)cn2c1N(CC)C(C)=O` [CBK145839], the viability at 28.5 h, 10 µM stood at 100%.
In the case of `CCc1nc2ccc(C(=O)NCCCN3CCCC3=O)cn2c1N(C)C(=O)COc1ccccc1` [CBK145855], the viability at 28.5 h, 10 µM worked out at 98.7%.
As to `Cc1nc2ccc(C(=O)N(C)CCN(C)C)cn2c1N(C)CC1CCCCC1` [CBK145894], the viability at 28.5 h, 10 µM came to 96.7%.
The figure for `CCc1nc2ccc(C(=O)Nc3ccc4c(c3)CCN4C(C)=O)cn2c1N(C=O)CC` [CBK145944] is 102%; for `CCN(CC)c1c(C)nc2ccc(C(=O)NCCc3ccccn3)cn12` [CBK145951] it is 94.9%; for `CCN(CC)c1c(C)nc2ccc(C(=O)N3CCN(C)CC3)cn12` [CBK145955] it is 91.5%.
In the case of `CCN(CC)c1c(C)nc2ccc(C(=O)NCc3ccc(N(C)C)cc3)cn12` [CBK145961], the viability at 28.5 h, 10 µM is 92.7%.
The figure for `CCN(CC)c1c(C)nc2ccc(C(=O)NCCN3CCNC3=O)cn12` [CBK145977] is 97.8%; for `CCN(CC)c1c(C)nc2ccc(C(=O)Nc3cc(-c4ccccc4)ccc3OC)cn12` [CBK145980] it is 121%.
Turning to `CCCCN(C)c1c(C)nc2ccc(C(=O)N(C)CCCN(C)C)cn12` [CBK146006], the viability at 28.5 h, 10 µM was determined as 103%.
The same measure for `CCc1nc2ccc(C(=O)Nc3ccc(Cl)c(Cl)c3)cn2c1N(CC)CCOC` [CBK146042]: 94%; for `Cc1nc2ccc(C(=O)NC3=NC(=O)CS3)cn2c1N(C)Cc1cccs1` [CBK146110]: 86.3%.
The figure for `CCc1nc2ccc(C(=O)N3CCNC(=O)C3)cn2c1N(CCC(C)C)CCN(C)C` [CBK146255] is 92.4%.
As for `CCNC(=O)N(C)c1c(CC)nc2ccc(C(=O)N3CCN(C(C)=O)CC3)cn12` [CBK146362], the viability at 28.5 h, 10 µM is 104%.
`CCc1nc2ccc(C(=O)N3CCCCC3)cn2c1N(C)C(=O)c1cccc(OC)c1` [CBK146392]: the viability at 28.5 h, 10 µM was 113%.
The same measure for `Cc1nc2ccc(C(=O)N3CCN(c4ccccc4)CC3)cn2c1N(C)C(=O)c1cccs1` [CBK146544]: 99%.
As to `COc1ccccc1CNC(=O)c1ccc2nc(C)c(N(C)C(=O)c3cccs3)n2c1` [CBK146546], the viability at 28.5 h, 10 µM came to 86.9%.
As for `CCc1nc2ccc(C(=O)N(C)CCN(C)C)cn2c1N(C)Cc1cc2ccccc2s1` [CBK146551], the viability at 28.5 h, 10 µM is 89.3%.
Turning to `CCc1nc2ccc(C(=O)NCCN3CCOCC3)cn2c1N(C)Cc1cc2ccccc2s1` [CBK146561], the viability at 28.5 h, 10 µM is 101%.
Consider `CCc1nc2ccc(C(=O)NC3CCN(C)CC3)cn2c1N(C)C=O` [CBK146594], for which the viability at 28.5 h, 10 µM came to 108%.
With `CCc1nc2ccc(C(=O)NCCN3CCOCC3)cn2c1N(C=O)Cc1ccc(OC)cc1` [CBK146625], the viability at 28.5 h, 10 µM turned out to be 97.9%.
With `CCc1nc2ccc(C(=O)Nc3cccc(NS(C)(=O)=O)c3)cn2c1N(C)CCCc1ccccc1` [CBK146670], the viability at 28.5 h, 10 µM worked out at 101%.
The same measure for `CCc1nc2ccc(C(=O)NCCN(C)C)cn2c1N(CC)CC(=O)N(C)C` [CBK146762]: 89.6%; for `Cc1nc2ccc(C(=O)N3CCN(C)CC3)cn2c1N(C)C(=O)CCc1ccccc1` [CBK146786]: 95.3%; for `CCc1nc2ccc(C(=O)N3CCC(O)(Cc4ccccc4)CC3)cn2c1N(CC)C(=O)CCC1CCCC1` [CBK146854]: 88.1%.
In the case of `CCc1nc2ccc(C(=O)Nc3ccc(NC(C)=O)cc3)cn2c1N(C)C(=O)Cc1ccccc1` [CBK146855], the viability at 28.5 h, 10 µM amounted to 95.3%.
Take `CCc1nc2ccc(C(=O)N(C)CCN(C)C)cn2c1N(C)C(=O)Cc1ccccc1` [CBK146858]: the viability at 28.5 h, 10 µM is 90.8%.
On to `CCc1nc2ccc(C(=O)N(C)CCN(C)C)cn2c1N(CC)C(=O)NCCc1ccccc1` [CBK147036], for which the viability at 28.5 h, 10 µM came to 96.4%.
On to `CCCCC(=O)N(C)c1c(C)nc2ccc(C(=O)Nc3ccc(C(N)=O)cc3)cn12` [CBK147066], for which the viability at 28.5 h, 10 µM came to 94.5%.
`Cc1nc2c(OCC(=O)C(C)(C)C)cccn2c1N(C)C(=O)C1CCCCC1` [CBK147145]: the viability at 28.5 h, 10 µM was determined as 92.4%.
The same measure for `Cc1nc2c(Oc3ncccn3)cccn2c1N(C)C(=O)C1CCCCC1` [CBK147161]: 99.1%; for `Cc1nc2c(OCc3ccc(F)c(F)c3)cccn2c1N(C)C(=O)CCC1CCCC1` [CBK147202]: 99.3%; for `CCC(CC)C(=O)N(C)c1c(C)nc2c(OCC(=O)c3ccc(F)cc3)cccn12` [CBK147239]: 113%.
The same measure for `Cc1nc2c(OCC3CCCCC3)cccn2c1N(C)CC1CC1` [CBK147279]: 97.2%; for `Cc1nc2c(OCC(=O)c3ccc(Cl)cc3Cl)cccn2c1N(C)CC1CC1` [CBK147294]: 105%; for `CCN(C)c1c(C)nc2c(OCc3ccccc3C(=O)OC)cccn12` [CBK147321]: 95.5%.
Turning to `CCc1nc2c(OCCOc3ccccc3)cccn2c1N(C)C(=O)COc1ccccc1` [CBK147355], the viability at 28.5 h, 10 µM was found to be 95.2%.
For `CCOC(=O)N(C)c1c(CC)nc2c(OCC(=O)C(C)(C)C)cccn12` [CBK147382], the viability at 28.5 h, 10 µM turned out to be 94.2%.
Regarding `CCc1nc2c(OCCCN(C)S(C)(=O)=O)cccn2c1N(C)C(=O)c1ccco1` [CBK147435], the viability at 28.5 h, 10 µM stood at 95%.
